Data taken from PMC7718890 (Scientific Reports, 2020).
Values joined by “and” are separate entries in the source; they are usually repeats but may differ in a detail not shown here. Identical values can stand only once. Like-named read-outs stand apart in the source and are kept apart here.

Assays:
[1] = molecular target: CarD·RNAP binding (CarD association with RPo)
[2] = Turbidity test (OD620) for aggregation; type: physicochemical
[3] = test system: RNAP; details: cited from earlier work

CarD·RNAP binding (CarD association with RPo), sequence (P9WGY5 whole entry): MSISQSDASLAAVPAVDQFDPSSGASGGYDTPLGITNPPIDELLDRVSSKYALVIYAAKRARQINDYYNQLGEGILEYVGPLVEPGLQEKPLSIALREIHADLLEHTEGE
CarD·RNAP binding (CarD association with RPo), sequence (P9WGI1 whole entry, further chain): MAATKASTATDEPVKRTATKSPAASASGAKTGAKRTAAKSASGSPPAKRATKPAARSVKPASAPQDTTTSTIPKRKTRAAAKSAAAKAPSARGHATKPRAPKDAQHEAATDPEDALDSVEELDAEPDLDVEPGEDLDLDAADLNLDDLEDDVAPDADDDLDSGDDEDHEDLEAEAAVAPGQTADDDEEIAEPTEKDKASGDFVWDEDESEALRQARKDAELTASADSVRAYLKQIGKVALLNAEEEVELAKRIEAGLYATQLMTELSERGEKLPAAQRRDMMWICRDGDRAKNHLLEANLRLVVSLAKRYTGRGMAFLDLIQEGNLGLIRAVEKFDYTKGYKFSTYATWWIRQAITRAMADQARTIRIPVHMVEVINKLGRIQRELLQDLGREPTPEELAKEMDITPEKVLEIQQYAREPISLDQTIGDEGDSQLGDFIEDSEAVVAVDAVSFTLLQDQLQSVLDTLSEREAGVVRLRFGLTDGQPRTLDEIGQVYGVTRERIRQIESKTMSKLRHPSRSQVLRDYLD
CarD·RNAP binding (CarD association with RPo), sequence (P9WGY7 whole entry, further chain): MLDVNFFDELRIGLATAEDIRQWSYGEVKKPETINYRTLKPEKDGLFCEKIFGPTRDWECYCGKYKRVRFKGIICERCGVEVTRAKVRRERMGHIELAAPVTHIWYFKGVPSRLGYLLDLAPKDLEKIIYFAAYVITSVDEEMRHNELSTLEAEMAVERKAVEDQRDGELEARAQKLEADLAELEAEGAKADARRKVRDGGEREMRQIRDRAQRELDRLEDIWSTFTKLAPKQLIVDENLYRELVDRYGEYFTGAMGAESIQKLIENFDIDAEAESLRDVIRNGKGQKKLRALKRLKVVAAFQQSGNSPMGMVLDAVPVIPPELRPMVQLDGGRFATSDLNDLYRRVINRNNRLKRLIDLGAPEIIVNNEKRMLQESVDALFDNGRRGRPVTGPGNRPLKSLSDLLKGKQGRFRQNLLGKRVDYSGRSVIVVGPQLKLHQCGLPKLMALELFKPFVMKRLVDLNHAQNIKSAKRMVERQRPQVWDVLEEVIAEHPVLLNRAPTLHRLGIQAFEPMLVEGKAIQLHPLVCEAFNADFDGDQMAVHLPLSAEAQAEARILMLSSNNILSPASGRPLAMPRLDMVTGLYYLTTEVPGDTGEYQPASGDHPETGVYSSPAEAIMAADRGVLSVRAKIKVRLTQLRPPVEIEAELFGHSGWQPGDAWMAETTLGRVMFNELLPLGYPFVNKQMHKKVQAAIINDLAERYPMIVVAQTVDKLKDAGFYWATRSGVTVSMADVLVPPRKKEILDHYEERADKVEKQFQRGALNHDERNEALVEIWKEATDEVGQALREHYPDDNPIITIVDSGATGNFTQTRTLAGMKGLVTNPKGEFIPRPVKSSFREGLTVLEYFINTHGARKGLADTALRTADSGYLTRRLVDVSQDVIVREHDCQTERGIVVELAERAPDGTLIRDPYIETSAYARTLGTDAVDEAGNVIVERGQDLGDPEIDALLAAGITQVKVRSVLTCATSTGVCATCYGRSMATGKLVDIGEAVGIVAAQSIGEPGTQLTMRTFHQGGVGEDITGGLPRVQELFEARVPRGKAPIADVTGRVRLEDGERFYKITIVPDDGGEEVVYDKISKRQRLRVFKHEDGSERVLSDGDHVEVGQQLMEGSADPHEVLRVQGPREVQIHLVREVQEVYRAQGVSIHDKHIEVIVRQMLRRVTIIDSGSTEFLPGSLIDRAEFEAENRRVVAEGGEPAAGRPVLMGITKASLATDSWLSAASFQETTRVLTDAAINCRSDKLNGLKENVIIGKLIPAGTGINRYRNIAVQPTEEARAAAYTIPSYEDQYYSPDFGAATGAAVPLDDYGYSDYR
CarD·RNAP binding (CarD association with RPo), sequence (P9WGY9 whole entry, further chain): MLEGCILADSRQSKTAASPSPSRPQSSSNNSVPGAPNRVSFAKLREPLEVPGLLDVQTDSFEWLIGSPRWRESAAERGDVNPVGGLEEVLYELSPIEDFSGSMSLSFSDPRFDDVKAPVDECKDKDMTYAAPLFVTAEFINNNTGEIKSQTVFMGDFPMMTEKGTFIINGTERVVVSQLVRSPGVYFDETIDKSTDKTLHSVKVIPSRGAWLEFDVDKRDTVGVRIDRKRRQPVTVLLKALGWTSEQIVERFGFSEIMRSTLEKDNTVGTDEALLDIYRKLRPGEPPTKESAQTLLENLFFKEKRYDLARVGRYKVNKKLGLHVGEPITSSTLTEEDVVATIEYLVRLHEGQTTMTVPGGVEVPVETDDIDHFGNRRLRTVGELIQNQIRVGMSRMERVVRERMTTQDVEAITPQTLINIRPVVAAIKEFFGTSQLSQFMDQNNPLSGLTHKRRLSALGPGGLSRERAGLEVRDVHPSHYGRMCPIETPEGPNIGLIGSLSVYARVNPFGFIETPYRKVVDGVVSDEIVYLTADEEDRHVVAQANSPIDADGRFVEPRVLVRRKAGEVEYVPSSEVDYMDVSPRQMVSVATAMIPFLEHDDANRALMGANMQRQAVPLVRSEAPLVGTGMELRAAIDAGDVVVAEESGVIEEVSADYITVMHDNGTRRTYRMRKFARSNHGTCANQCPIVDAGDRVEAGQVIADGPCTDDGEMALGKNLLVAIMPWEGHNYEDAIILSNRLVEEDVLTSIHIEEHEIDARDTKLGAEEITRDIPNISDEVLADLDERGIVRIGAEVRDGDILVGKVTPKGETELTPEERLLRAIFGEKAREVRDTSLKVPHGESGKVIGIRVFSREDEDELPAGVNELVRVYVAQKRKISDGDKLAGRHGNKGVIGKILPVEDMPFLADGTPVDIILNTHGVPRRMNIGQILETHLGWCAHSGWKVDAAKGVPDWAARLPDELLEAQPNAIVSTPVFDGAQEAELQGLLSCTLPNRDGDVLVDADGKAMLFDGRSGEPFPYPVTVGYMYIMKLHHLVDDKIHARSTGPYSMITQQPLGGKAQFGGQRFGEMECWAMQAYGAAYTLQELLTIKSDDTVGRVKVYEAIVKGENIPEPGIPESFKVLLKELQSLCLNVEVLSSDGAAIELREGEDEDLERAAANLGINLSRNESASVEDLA
CarD·RNAP binding (CarD association with RPo), sequence (P9WGZ1 whole entry, further chain): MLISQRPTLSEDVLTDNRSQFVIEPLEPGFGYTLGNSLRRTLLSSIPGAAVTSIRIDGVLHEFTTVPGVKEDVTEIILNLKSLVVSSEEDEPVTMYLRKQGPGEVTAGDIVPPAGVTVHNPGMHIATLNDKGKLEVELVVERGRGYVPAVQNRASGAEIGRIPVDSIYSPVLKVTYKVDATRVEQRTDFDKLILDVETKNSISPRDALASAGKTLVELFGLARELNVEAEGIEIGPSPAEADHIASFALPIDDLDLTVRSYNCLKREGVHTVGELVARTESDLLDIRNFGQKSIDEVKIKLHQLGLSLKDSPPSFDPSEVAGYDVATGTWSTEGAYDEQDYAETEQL

SMILES | IC50 [1] | Concentration above which compound is prone to aggregation (turbidity curve) [2] | IC50 ([3]; read-out: IC50 In Vitro Transcription +RbpA) [µM] | IC50 ([3]; read-out: IC50 In Vitro Transcription -RbpA) [µM]
Cc1cc2c(NC(=O)Nc3ccccc3)cccc2nn1 [CCG-237488] | 20 µM |  |  | 
O=C(O)c1ccc(-c2nc3ccc(-c4ccc5nc(-c6ccc(C(=O)O)cc6)[nH]c5c4)cc3[nH]2)cc1 [CCG-249580] | 32 µM and 45 µM | higher than 34 µM |  | 
CCc1c(Cl)c(O)c(Cl)c(O)c1C(=O)O[C@H]1[C@H](O)[C@H](OC)[C@H](OC/C2=C\C=C\C[C@H](O)/C(C)=C/[C@H](CC)[C@@H](O[C@@H]3OC(C)(C)[C@@H](OC(=O)C(C)C)[C@H](O)[C@@H]3O)/C(C)=C/C(C)=C/C[C@@H]([C@@H](C)O)OC2=O)O[C@@H]1C [Fidaxomicin] |  |  | 0.21 | 7
